According to the NIST ThermoML archive (doi:10.1016/j.fluid.2016.05.024):

Assay: mn = molality of the nth substance listed, in mol/kg
Details: 87 kPa, Liquid, Vibrating tube method

CCn1cc[n+](C)c1.[Cl-] [1-ethyl-3-methylimidazolium chloride] + O
mass density [kg/m3]
Details | m1 = 0.0532 | m1 = 0.1024 | m1 = 0.1528 | m1 = 0.2049 | m1 = 0.2529 | m1 = 0.3082 | m1 = 0.3571 | m1 = 0.4077 | m1 = 0.459 | m1 = 0.5026
293.15 K | 998.82 | 999.41 | 1000.01 | 1000.63 | 1001.2 | 1001.84 | 1002.41 | 1002.99 | 1003.56 | 1004.05
298.15 K | 997.66 | 998.23 | 998.82 | 999.43 | 999.98 | 1000.61 | 1001.17 | 1001.73 | 1002.29 | 1002.77
303.15 K | 996.25 | 996.81 | 997.39 | 997.98 | 998.52 | 999.14 | 999.68 | 1000.24 | 1000.79 | 1001.26
308.15 K | 994.62 | 995.17 | 995.74 | 996.32 | 996.85 | 997.46 | 997.99 | 998.53 | 999.08 | 999.54
313.15 K | 992.79 | 993.34 | 993.9 | 994.48 | 995.01 | 995.61 | 996.13 | 996.67 | 997.21 | 997.67

CCn1cc[n+](C)c1.O=S(=O)([O-])O [1-ethyl-3-methylimidazolium hydrogen sulfate] + O
mass density [kg/m3]
Details | m1 = 0.0528 | m1 = 0.1003 | m1 = 0.1503 | m1 = 0.2034 | m1 = 0.253 | m1 = 0.303 | m1 = 0.3548 | m1 = 0.4046 | m1 = 0.453 | m1 = 0.5055
293.15 K | 1000.86 | 1003.08 | 1005.3 | 1007.57 | 1009.63 | 1011.67 | 1013.72 | 1015.68 | 1017.53 | 1019.54
298.15 K | 999.65 | 1001.82 | 1003.99 | 1006.22 | 1008.23 | 1010.23 | 1012.24 | 1014.17 | 1016 | 1017.98
303.15 K | 998.2 | 1000.33 | 1002.46 | 1004.64 | 1006.63 | 1008.6 | 1010.58 | 1012.47 | 1014.26 | 1016.21
308.15 K | 996.54 | 998.63 | 1000.73 | 1002.87 | 1004.82 | 1006.76 | 1008.7 | 1010.58 | 1012.34 | 1014.25
313.15 K | 994.68 | 996.73 | 998.8 | 1000.91 | 1002.83 | 1004.74 | 1006.66 | 1008.5 | 1010.24 | 1012.13
